# Measured values taken from patent US12091699B2, “Method for enhancing production of homeoprotein using inhibitor of lysosomal function” (Korea Advanced Institute of Science and Technology, priority 2021, dated 2024).
# Tests used:
# Format in all cases: cell-based, human
# [1] = tested on: HeLa cell line that continuously produces the Otx2 homeoprotein; test: Immunocytochemical staining of intracellular Otx2 protein after treatment with inhibitor of lysosomal function; settings: HeLa cells, treated 16 hours, FIG. 2A, vehicle: almost exclusively in cell nucleus
# Procedure: Cells were cultured on a cover glass in a cell incubator for 24 hours or more, and treated with a fixing solution (physiological saline including 4% paraformaldehyde) at room temperature for 20 minutes to fix the cells. Next, after the cells were treated with a permeability-imparting solution (physiological saline including 0.1% TWEEN-20 (polysorbate 20)) at room temperature for 10 minutes, the cells were treated with a blocking solution (physiological saline including 10% donkey serum) at room temperature for 1 hour. Subsequently, the cells were treated with a blocking solution including a primary antibody, cultured at 4° C. for 16 hours, then treated with a blocking solution 10 including a fluorophore-conjugated secondary antibody, and cultured at room temperature for 1 hour. Then, the fluorescence signals of the cells were analyzed under an Olympus FV1000 confocal microscope.
# (§1) Accordingly, the present inventors treated a HeLa cell line that continuously produces the Otx2 homeoprotein manufactured in Example 2 with a V-ATPase inhibitor and a lysosomal pH enhancer as inhibitors of lysosomal function, and confirmed a change in secretion of the homeoprotein. The V-ATPase inhibitor is a lysosomal ion channel inhibitor, and when cells are treated with the inhibitor, the pH in the lysosome is increased, so the protein degradation by the lysosome may be suppressed because the activity of the hydrolase present in the lysosome is inhibited.
# Thus, specifically, after the HeLa cells were treated with each of V-ATPase inhibitors bafilomycin A1 (BafA1) and concanamycin A (ConA), and a lysosomal pH enhancer chloroquine (CQ) at different concentrations for 16 hours, the intracellular expression of the Otx2 protein was observed by immunocytochemical staining.
# [2] = tested on: HeLa cell line that continuously produces the Otx2 homeoprotein; test: Western blot analysis of Otx2 protein in cell lysate; settings: for expression level of the Otx2 protein in cell lysate: HeLa cells, western blot V5 (Otx2), FIG. 2B; for intracellular expression of the Otx2 protein: FIG. 2C
# Procedure: In order to detect a homeoprotein present inside the cell, cells were lysed with a RIPA lysate (tertiary distilled water including 20 mM Tris-HCl, pH 7.5, 150 mM NaCl, 1 mM Na2EDTA, 1 mM EGTA, 1% NP-40, 1% sodium deoxycholate, 2.5 mM sodium pyrophosphate, 1 mM β-glycerophosphate, 1 mM Na3VO4, and 1 μg/ml leupeptin), and then proteins in the cells were separated according to molecular weight by performing electrophoresis (SDS-PAGE) on the cell lysate on a polyacrylamide gel including sodium dodecyl sulfate. The gel was induced to electrically bind to a PVDF membrane after protein separation to transfer the proteins to the membrane.
# The V-ATPase inhibitor is a lysosomal ion channel inhibitor, and when cells are treated with the inhibitor, the pH in the lysosome is increased, so the protein degradation by the lysosome may be suppressed because the activity of the hydrolase present in the lysosome is inhibited.
# (§2) Furthermore, the level of secreted Otx2 protein and the intracellular expression level of Otx2 protein when the HeLa cells were treated with the inhibitor of lysosomal function were analyzed by a dot blot analysis and a western blot analysis.
# (§3) In addition, the present inventors treated the HeLa cells with bafilomycin D (BafD) together with bafilomycin A1 (BafA1) and concanamycin A (ConA), which are types of V-ATPase inhibitors, at different concentrations, and performed an analysis in the same manner as in FIG. 2B.
# [3] = tested on: HeLa cell line that continuously produces the Otx2 homeoprotein; test: Dot blot analysis of Otx2 protein secreted into cell culture solution; settings: FIG. 2C
# Procedure: In order to detect a homeoprotein secreted to the outside of the cell, a cell culture solution including sodium heparin was allowed to pass through a polyvinylidene difluoride (PVDF) membrane. Next, the membrane was treated with a blocking solution (TBST including 5% skim milk) and allowed to react at room temperature for 1 hour. Subsequently, the membrane was treated with a blocking solution including a primary antibody, allowed to react at 4° C. for 16 hours, then treated with a horseradish peroxidase (HRP)-conjugated secondary antibody, and cultured at room temperature for 1 hour, and then the membrane was exposed to an X-ray photosensitive film by inducing an enzymatic reaction using an ECL solution as a substrate to thereby analyze the results.
# as §1, §2, §3
# [4] = concentration increased from 20 nM to 200 nM
# [5] = concentration increased from 5 nM to 50 nM
Molecule,expression pattern (intracellular position) of Otx2 protein [1],expression level of the Otx2 protein in cell lysate [2],"secretion of the Otx2 protein to the outside of the cell [3, 4]","intracellular expression of the Otx2 protein [2, 4]","secretion of the Otx2 protein to the outside of the cell [3, 5]","intracellular expression of the Otx2 protein [2, 5]"
"CCN(CC)CCCC(C)Nc1ccnc2cc(Cl)ccc12 (stereo not drawn) [CQ, chloroquine]",occurred even in the cytoplasm including the cell nucleus,expressed at a higher level,–,–,–,–
bafilomycin D [BafD],–,–,increased,increased,–,–
"CO/C1=C\C(C)=C\[C@@H](C)[C@@H](O)[C@@H](C)C/C(C)=C/C=C/[C@H](OC)[C@@H]([C@@H](C)[C@@H](O)[C@H](C)[C@@]2(O)C[C@@H](O)[C@H](C)[C@@H](C(C)C)O2)OC1=O [BafA1, bafilomycin A1]",occurred even in the cytoplasm including the cell nucleus,a big difference did not appear,increased,increased,–,–
"C/C=C/[C@H]1O[C@@](O)([C@@H](C)[C@H](O)[C@H](C)[C@H]2OC(=O)/C(OC)=C/C(C)=C/[C@@H](C)[C@@H](O)[C@@H](CC)[C@@H](O)[C@H](C)C/C(C)=C/C=C/[C@@H]2OC)C[C@@H](O[C@H]2C[C@@H](O)[C@H](OC(N)=O)[C@@H](C)O2)[C@@H]1C [ConA, concanamycin A]",occurred even in the cytoplasm including the cell nucleus,expressed at a higher level,–,–,increased,increased
